From patent US11130756B2, “[1,2,4]Triazolo[4,3-A]pyridinyl substituted indole compounds” (BRISTOL-MYERS SQUIBB COMPANY, priority 2017, dated 2021)

How the values were obtained:
Type in all cases: cell-based
human TLR8 = biological target: T1, human TLR8 (Homo sapiens, UniProt Q9NR97); assay: TLR8 inhibition reporter assay (HEK-Blue, SEAP); details: HEK-Blue cells overexpressing human TLR8, R848 15.9 μM, 22 hour incubation
T1 construct: host or cells: HEK-Blue cells
T1 sequence (Q9NR97 27-1041): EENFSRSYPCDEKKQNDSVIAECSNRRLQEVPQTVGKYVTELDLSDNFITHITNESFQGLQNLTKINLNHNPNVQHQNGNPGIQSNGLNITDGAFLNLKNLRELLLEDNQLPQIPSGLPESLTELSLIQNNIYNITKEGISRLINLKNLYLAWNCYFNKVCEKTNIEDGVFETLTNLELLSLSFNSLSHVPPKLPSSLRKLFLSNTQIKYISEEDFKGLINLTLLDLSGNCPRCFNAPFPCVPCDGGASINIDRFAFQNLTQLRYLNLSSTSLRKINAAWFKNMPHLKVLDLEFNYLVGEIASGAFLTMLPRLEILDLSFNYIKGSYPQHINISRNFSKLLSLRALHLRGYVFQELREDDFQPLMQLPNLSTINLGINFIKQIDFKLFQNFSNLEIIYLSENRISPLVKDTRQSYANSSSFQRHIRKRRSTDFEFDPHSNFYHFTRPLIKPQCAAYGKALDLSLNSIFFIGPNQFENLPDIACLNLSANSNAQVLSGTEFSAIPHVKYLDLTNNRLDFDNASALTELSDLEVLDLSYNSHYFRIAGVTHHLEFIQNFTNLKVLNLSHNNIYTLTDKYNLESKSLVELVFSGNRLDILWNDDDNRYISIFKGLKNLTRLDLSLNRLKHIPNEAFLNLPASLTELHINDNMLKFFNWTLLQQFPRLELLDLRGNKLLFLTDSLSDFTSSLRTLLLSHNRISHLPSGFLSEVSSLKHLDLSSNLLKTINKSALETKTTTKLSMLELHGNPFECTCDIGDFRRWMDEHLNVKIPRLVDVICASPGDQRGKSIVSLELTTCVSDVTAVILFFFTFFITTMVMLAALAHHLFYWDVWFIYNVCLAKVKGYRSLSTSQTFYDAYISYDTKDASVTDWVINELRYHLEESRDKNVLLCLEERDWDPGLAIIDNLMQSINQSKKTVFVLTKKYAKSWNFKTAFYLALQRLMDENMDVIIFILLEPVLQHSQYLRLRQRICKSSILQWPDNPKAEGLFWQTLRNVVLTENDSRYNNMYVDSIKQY
Method in brief: (§1)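 HEK-Blue cells overexpressing human TLR7, TLR8 or TLR9 carry a SEAP reporter driven by NF-κB/AP-1 sites. Compounds (0.05 nM–50 μM) were preincubated 30 min at room temperature, then cells were stimulated with gardiquimod 7.5 μM (TLR7), R848 15.9 μM (TLR8) or ODN2006 5 nM (TLR9) for 22 h at 37 °C.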

human TLR9 = biological target: T2, human TLR9 (Homo sapiens, UniProt Q9NR96); assay: TLR9 inhibition reporter assay (HEK-Blue, SEAP); details: HEK-Blue cells overexpressing human TLR9, ODN2006 5 nM, 22 hour incubation
T2 construct: host or cells: HEK-Blue cells
T2 sequence (Q9NR96 26-1032): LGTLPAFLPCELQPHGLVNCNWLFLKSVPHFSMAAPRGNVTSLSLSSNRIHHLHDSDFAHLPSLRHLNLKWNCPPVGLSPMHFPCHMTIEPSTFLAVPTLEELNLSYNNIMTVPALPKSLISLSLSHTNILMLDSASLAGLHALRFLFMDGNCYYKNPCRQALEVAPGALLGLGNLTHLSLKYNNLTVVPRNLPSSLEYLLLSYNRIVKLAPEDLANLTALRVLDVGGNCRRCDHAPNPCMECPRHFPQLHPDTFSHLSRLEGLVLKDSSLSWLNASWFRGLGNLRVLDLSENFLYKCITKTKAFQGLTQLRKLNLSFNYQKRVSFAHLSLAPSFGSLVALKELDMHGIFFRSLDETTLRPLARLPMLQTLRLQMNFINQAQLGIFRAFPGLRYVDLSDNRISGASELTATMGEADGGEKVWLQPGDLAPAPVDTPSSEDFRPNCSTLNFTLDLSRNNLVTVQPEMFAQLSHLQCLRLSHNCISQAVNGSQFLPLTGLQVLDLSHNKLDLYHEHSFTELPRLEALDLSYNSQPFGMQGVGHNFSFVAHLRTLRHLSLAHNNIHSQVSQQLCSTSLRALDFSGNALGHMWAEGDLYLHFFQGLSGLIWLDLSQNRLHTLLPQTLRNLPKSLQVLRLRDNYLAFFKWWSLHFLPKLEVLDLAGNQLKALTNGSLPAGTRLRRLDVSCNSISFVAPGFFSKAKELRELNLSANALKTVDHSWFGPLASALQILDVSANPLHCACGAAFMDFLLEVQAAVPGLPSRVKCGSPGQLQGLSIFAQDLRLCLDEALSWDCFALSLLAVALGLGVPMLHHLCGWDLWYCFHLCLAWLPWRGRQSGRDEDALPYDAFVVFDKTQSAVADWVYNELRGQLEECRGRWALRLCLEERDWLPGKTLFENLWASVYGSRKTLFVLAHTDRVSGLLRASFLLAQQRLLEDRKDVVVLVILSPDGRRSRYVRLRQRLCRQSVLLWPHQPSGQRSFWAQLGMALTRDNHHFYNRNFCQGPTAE
Method in brief: as §1

human TLR7 = biological target: T3, human TLR7 (Homo sapiens, UniProt Q9NYK1); assay: TLR7 inhibition reporter assay (HEK-Blue, SEAP); details: HEK-Blue cells overexpressing human TLR7, gardiquimod 7.5 μM, 22 hour incubation
T3 construct: host or cells: HEK-Blue cells
T3 sequence (Q9NYK1 27-1049): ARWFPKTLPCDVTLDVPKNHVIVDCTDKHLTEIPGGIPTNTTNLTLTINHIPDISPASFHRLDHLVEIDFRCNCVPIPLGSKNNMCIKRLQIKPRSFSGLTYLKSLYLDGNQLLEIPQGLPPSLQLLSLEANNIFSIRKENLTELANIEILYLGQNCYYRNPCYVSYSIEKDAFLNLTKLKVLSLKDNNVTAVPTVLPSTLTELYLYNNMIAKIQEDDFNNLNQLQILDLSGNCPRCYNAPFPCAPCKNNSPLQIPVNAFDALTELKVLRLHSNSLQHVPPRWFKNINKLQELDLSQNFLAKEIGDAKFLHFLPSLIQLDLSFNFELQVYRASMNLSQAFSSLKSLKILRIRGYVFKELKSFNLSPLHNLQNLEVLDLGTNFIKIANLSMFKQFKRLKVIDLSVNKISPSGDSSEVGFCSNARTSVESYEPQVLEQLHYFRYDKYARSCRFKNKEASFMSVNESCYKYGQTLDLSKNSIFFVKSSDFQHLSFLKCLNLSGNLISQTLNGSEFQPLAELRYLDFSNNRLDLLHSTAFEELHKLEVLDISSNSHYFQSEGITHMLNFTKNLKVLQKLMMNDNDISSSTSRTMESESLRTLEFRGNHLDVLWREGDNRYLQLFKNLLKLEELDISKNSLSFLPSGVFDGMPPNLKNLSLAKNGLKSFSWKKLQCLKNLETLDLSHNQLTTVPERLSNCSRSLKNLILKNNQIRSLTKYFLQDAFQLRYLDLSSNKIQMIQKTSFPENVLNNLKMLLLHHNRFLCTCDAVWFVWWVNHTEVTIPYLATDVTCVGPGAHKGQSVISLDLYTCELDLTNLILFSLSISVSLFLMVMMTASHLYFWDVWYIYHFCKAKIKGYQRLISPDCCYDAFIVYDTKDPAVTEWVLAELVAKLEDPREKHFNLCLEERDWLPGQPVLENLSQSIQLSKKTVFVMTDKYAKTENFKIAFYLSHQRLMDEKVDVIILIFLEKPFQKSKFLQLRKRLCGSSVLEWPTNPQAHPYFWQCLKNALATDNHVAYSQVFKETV
Method in brief: as §1

Row | Structure (SMILES) | IC50 (human TLR8) [nM] | IC50 (human TLR9) [nM] | IC50 (human TLR7) [nM]
1 | Cc1c(-c2[nH]c3ccc(C4CCN(C5CCOCC5)CC4)cc3c2C(C)C)cn2cnnc2c1Cl [Example 81, 8-chloro-6-(3-isopropyl-5-(1-(tetrahydro-2H-pyran-4-yl)piperidin-4-yl)-1H-indol-2-yl)-7-methyl-[1,2,4]triazolo[4,3-a]pyridine] | 10.8 | 2260 | 2.5
2 | Cc1c(-c2[nH]c3ccc(C4CCN(C5COC5)CC4)cc3c2C(C)C)cn2cnnc2c1Cl [Example 82, 8-chloro-6-(3-isopropyl-5-(1-(oxetan-3-yl)piperidin-4-yl)-1H-indol-2-yl)-7-methyl-[1,2,4] triazolo[4,3-a]pyridine] | 153 | ≥ 50000 | 4.9
3 | Cc1c(-c2[nH]c3ccc(C4CCN(Cc5cn(C)nn5)CC4)cc3c2C(C)C)cn2cnnc2c1C [Example 83, 6-(3-isopropyl-5-(1-((1-methyl-1H-1,2,3-triazol-4-yl)methyl)piperidin-4-yl)-1H-indol-2-yl)-7,8-dimethyl-[1,2,4]triazolo[4,3-a]pyridine] | 7.2 | 875 | 3.4
4 | Cc1c(-c2[nH]c3ccc(C4CCN(Cc5cn(C)nn5)CC4)cc3c2C(C)C)cn2cnnc2c1Cl [Example 84, 8-chloro-6-(3-isopropyl-5-(1-((1-methyl-1H-1,2,3-triazol-4-yl)methyl)piperidin-4-yl)-1H-indol-2-yl)-7-methyl-[1,2,4]triazolo[4,3-a]pyridine] | 21.6 | 1110 | 5.7
5 | Cc1c(-c2[nH]c3ccc(C4CCN(C5CCOC(C)(C)C5)CC4)cc3c2C(C)C)cn2cnnc2c1C (stereo not drawn) [Example 85, 6-(5-(1-(2,2-dimethyltetrahydro-2H-pyran-4-yl)piperidin-4-yl)-3-isopropyl-1H-indol-2-yl)-7,8-dimethyl-[1,2,4]triazolo[4,3-a]pyridine] | 6.7 | 1990 | 2.5
6 | COc1cc(-c2[nH]c3ccc(C4CCN(C5COC5)CC4)cc3c2C(C)C)cn2cnnc12 [Example 86, 6-(3-isopropyl-5-(1-(oxetan-3-yl)piperidin-4-yl)-1H-indol-2-yl)-8-methoxy-[1,2,4]triazolo[4,3-a]pyridine] | 26.8 | 6200 | 1.2
7 | Cc1c(-c2[nH]c3ccc(C4CCN(C5CC(C)OC(C)C5)CC4)cc3c2C(C)C)cn2cnnc2c1C (stereo not drawn) [Example 87, 6-(5-(1-(2,6-dimethyltetrahydro-2H-pyran-4-yl)piperidin-4-yl)-3-isopropyl-1H-indol-2-yl)-7,8-dimethyl-[1,2,4]triazolo[4,3-a]pyridine] | 12.8 | 1300 | 2.4
8 | COc1cc(-c2[nH]c3ccc(C4CCN(C5CCOCC5)CC4)cc3c2C(C)C)cn2cnnc12 [Example 88, 6-(3-isopropyl-5-(1-(tetrahydro-2H-pyran-4-yl)piperidin-4-yl)-1H-indol-2-yl)-8-methoxy-[1,2,4]triazolo[4,3-a]pyridine] | 33.4 | 344 | 1.9
9 | COc1ncc(CN2CCC(c3ccc4[nH]c(-c5cn6cnnc6c(C)c5C)c(C(C)C)c4c3)CC2)cn1 [Example 89, 6-(3-isopropyl-5-(1-((2-methoxypyrimidin-5-yl)methyl)piperidin-4-yl)-1H-indol-2-yl)-7,8-dimethyl-[1,2,4]triazolo[4,3-a]pyridine] | 3.3 | 773 | 0.1
10 | COc1cc(-c2[nH]c3ccc(C4CCN(CC5(C)COC5)CC4)cc3c2C(C)C)cn2cnnc12 [Example 90, 6-(3-isopropyl-5-(1-((3-methyloxetan-3-yl)methyl)piperidin-4-yl)-1H-indol-2-yl)-8-methoxy-[1,2,4]triazolo[4,3-a]pyridine] | 245 | 1500 | 17.3
11 | Cc1ncc(CN2CCC(c3ccc4[nH]c(-c5cn6cnnc6c(C)c5C)c(C(C)C)c4c3)CC2)cn1 [Example 91, 6-(3-isopropyl-5-(1-((2-methylpyrimidin-5-yl)methyl)piperidin-4-yl)-1H-indol-2-yl)-7,8-dimethyl-[1,2,4]triazolo[4,3-a]pyridine] | 4.6 | 1810 | 1.5
12 | Cc1c(-c2[nH]c3ccc(C4CCN(C5CC(C)OC(C)C5)CC4)cc3c2C(C)C)cn2cnnc2c1C (stereo not drawn) [Example 92, 6-(5-(1-(2,6-dimethyltetrahydro-2H-pyran-4-yl)piperidin-4-yl)-3-isopropyl-1H-indol-2-yl)-7,8-dimethyl-[1,2,4]triazolo[4,3-a] pyridine] | 15.2 | 3270 | 5.6
13 | Cc1c(-c2[nH]c3ccc(C4CCN(C5CCOC5)CC4)cc3c2C(C)C)cn2cnnc2c1C (stereo not drawn) [Example 93, 6-(3-isopropyl-5-(1-(tetrahydrofuran-3-yl)piperidin-4-yl)-1H-indol-2-yl)-7,8-dimethyl-[1,2,4]triazolo[4,3-a)pyridine] | 4 | 2800 | 1.6
